Experimental data from article PMC12406204 (Journal of Medicinal Chemistry, 2025).

How the values were obtained:
Assay type in all cases: cell-based
[1] = test system: mouse primary neurons; assay: Viability of primary neuronal cultures, basal conditions (trypan blue); conditions: 100 nM, 24 h
Protocol: A mouse primary cell experiment was performed to examine the neuroprotective effects of CB2R agonists selected for in-depth study (16i, 16j, 18e, 18f, 18o, and 18p). First, to exclude any intrinsic toxicity of the selected candidates, their potential effects on primary cell cultures were assessed. […] This finding is particularly noteworthy, and not self-evident, given the significant neurotoxicity observed during our earlier study with structurally related, classical abused [CB1R/CB2R promiscuous] synthetic cannabinoids (SCRAs). For comparative purposes, Figure A also depicts cell viability data obtained for some abused SCRAs (Figure A, gray bars) under identical conditions.
To prepare primary neurons, brains from fetuses of pregnant CD1 mice were removed (gestational age: 19 days). Neurons were isolated as described in Hradsky et al. Briefly, after removal of the meninges, samples were dissected and digested with 0.25% trypsin (20 min at 37 °C). The effect of trypsin was stopped by adding an equal volume of culture medium (supplemented DMEM). A single-cell suspension was obtained by repeated pipetting followed by passage through a 100 μm-pore mesh. Pelleted (7 min, 200g) cells were resuspended in 2 mL of supplemented DMEM and seeded at a density of 3.5 × 10^5 cells/mL in 6-well plates. After 24 h, the medium was replaced by neurobasal medium supplemented with 2 mM L-glutamine, 100 U/mL penicillin/streptomycin and 2% (v/v) B27 medium (GIBCO, Waltham, MA, USA). Primary neurons were assayed after 14 days in culture. Using NeuN as a marker, the percentage of neurons in the culture was >90%.
Primary cultures of striatal neurons were treated for 24 h with selected SCRAs (100 nM). Afterward, cells were scrapped from the plate and resuspended in neurobasal medium supplemented with 2 mM L-glutamine, 100 U/mL penicillin/streptomycin and 2% (v/v) B27 (GIBCO). Trypan blue staining was performed mixing 1 part of 0.4% trypan blue and 1 part of cell suspension in a plastic tube. After ∼3 min of incubation at room temperature, 10 μL of the mixture were sampled in a Neubauer chamber and counted with a Countess II FL (Life Technologies, California, CA, USA). The unstained (viable) and stained (nonviable) cells were counted separately, and the percentage of viability was calculated as total number of viable cells/total number of cells × 100.

[2] = target: T1, CB2R (Homo sapiens, UniProt P34972); assay: CB2R cAMP determination after forskolin stimulation in transfected HEK-293T cells; parameters: expressed in transfected cells; host or cells: HEK-293T, transient transfection (PEI); conditions: for Emax: HEK-293T, normalized to maximal efficacious concentration of CP 55,940, read-out: CB2R Emax AMPc (converted); for EC50: transfected HEK-293T cells, forskolin-stimulated cAMP, read-out: CB2R EC50 AMPc
Protocol: (§1) Initially we tested their ability to modify CB2R-mediated cAMP accumulation, providing insights into their functional behavior as either agonists or antagonists (Table ). Moreover, the signaling profiles of selected ligands were investigated through their impact on β-arrestin recruitment and Mitogen-Activated Protein Kinase (MAPK) phosphorylation pathway, enabling a more comprehensive evaluation of their intracellular signaling profiles (Table ).
HEK-293T cells were grown in Dulbecco’s Modified Eagle’s Medium (DMEM) medium (Gibco, Paisley, Scotland, United Kingdom) supplemented with 2 mM L-glutamine, 100 U/mL penicillin/streptomycin, MEM Non-Essential Amino Acids Solution (1/100) and 5% (v/v) heat inactivated Fetal Bovine Serum (FBS) (Invitrogen, Paisley, Scotland, United Kingdom). Cells were maintained in a humid atmosphere of 5% CO2 at 37 °C. Cells were transiently transfected with the PEI (Polyethylenimine, Sigma, St. Louis, MO, United States) method as previously described and used for functional assays 48 h later.
Signaling experiments have been performed as previously described. Two hours before initiating the experiment, HEK-293T cell-culture medium was replaced by serum-starved DMEM medium. Then, cells were detached, resuspended in growing medium containing […] zardaverine (Tocris, Bristol, U.K.) and placed in 384-well microplates (2500 cells/well). Cells were pretreated (15 min) with cannabinoid compounds (1 nM to 100 μM) -or vehicle- before adding […] forskolin (Tocris, Bristol, U.K.) to induce cAMP accumulation. Readings were performed after 15 min incubation at 25 °C. Homogeneous Time Resolved Fluorescence (HTRF) energy transfer measures were performed using the Lance Ultra cAMP kit (PerkinElmer, Waltham, MA, United States). Fluorescence at 665 nm was analyzed in a PHERA star Flagship microplate reader equipped with an HTRF optical module (BMG Lab Technologies, Offenburg, Germany).

[3] = target: T1, CB2R; assay: CB2R β-arrestin recruitment; parameters: expressed in transfected cells; host or cells: HEK-293T, transient transfection (PEI); conditions: for Emax: normalized to CP 55,940
Source text: as §1
(§2) JWH-133, a well-known nonbiased (balanced) agonist, was employed as the reference for comparing the signaling profiles of the tested compounds. An operational model analysis was applied to quantify the functional bias of each CB2R-selective agonist. This involved calculating the bias factor by comparing the signaling pathways: β-arrestin versus cAMP, MAPK versus cAMP, and β-arrestin versus MAPK.

[4] = target: T1, CB2R; assay: CB2R MAPK phosphorylation; parameters: expressed in transfected cells; host or cells: HEK-293T, transient transfection (PEI); conditions: for Emax: normalized to CP 55,940
Source text: as §1, §2

T1 sequence (P34972 whole entry): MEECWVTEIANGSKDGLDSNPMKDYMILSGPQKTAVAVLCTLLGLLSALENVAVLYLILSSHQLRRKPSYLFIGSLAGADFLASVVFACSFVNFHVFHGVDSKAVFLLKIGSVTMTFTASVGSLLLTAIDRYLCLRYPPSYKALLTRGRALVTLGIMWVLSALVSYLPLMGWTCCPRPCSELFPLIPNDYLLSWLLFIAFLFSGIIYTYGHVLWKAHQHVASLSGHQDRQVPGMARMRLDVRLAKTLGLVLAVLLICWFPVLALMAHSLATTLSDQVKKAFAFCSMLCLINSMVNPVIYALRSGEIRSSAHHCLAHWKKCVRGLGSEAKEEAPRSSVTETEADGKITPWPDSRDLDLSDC

SMILES	primary cell survival [1]	Emax [2] [%]	EC50 [2] [nM]	EC50 [3] [nM]	Emax [3] [%]	EC50 [4] [nM]	Emax [4] [%]
CCCCCn1nc(C(=O)N2CCCC[C@@H]2C(=O)OC)c2ccccc21 [16j]	did not affect primary cell survival	53	0.09 ± 0.01	0.28 ± 0.02	65	0.09 ± 0.003	89
CCCCCn1nc(C(=O)N2CCCC[C@H]2C(=O)OC)c2ccccc21 [16i]	did not affect primary cell survival	64	0.03 ± 0.01	1.09 ± 0.01	48	0.38 ± 0.09	88
NC(=O)[C@H]1CCCCN1C(=O)c1cn(CC2CCCCC2)c2ccccc12 [18f]	did not affect primary cell survival	55	118 ± 4	0.08 ± 0.01	88	0.07 ± 0.007	94
NC(=O)[C@@H]1CCCCN1C(=O)c1nn(Cc2ccc(F)cc2)c2ccccc12 [18o]	did not affect primary cell survival	60	0.6 ± 0.09	60.9 ± 2.5	148	0.03 ± 0.003	68
NC(=O)[C@H]1CCCCN1C(=O)c1nn(Cc2ccc(F)cc2)c2ccccc12 [18p]	did not affect primary cell survival	58	6.8 ± 0.3	326 ± 4	77	0.4 ± 0.02	79
NC(=O)[C@@H]1CCCCN1C(=O)c1cn(CC2CCCCC2)c2ccccc12 [18e]	did not affect primary cell survival	82	1701 ± 12	0.4 ± 0.08	120	0.09 ± 0.002	74
